We go through five compounds from patent publication US9382226B2, “Aldosterone synthase inhibitors” (Merck Sharp & Dohme Corp., priority 2010, dated 2016).

One assay addresses T1, human CYP11B1 (Homo sapiens, UniProt P15538).
T1 construct: expressed in transfected cells; host or cells: V79 cells (clone V79-hCYP11B1-8C7)
T1 sequence (P15538 25-503): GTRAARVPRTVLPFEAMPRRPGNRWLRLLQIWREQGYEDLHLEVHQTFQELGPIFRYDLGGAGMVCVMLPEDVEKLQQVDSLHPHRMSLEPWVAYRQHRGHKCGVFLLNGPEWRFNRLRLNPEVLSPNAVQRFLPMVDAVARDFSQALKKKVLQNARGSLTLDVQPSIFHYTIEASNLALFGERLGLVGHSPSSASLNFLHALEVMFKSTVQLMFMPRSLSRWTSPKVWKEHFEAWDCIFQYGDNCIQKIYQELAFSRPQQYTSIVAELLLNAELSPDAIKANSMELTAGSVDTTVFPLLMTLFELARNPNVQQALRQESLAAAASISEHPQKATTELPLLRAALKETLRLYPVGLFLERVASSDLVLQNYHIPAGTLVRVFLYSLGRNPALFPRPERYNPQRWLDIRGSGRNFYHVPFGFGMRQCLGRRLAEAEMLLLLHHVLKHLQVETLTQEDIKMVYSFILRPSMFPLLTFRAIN
The assay can be described thus: V79-Human-CYP11B1 cell assay (cortisol formation, HTRF). The format is cell-based. The conditions noted are these: V79 cells stably expressing human CYP11B1; substrate 250 nM 11-deoxycortisol; 3 hours. How it is done:
Methods for V79-Human-CYP11B2 and V79-Human-CYP11B1 Assays: V79 cell lines stably expressing the either the human CYP11B2 or the human CYP11B1 enzyme were generated using a standard transfection protocol. V79 cells were transfected with plasmids pTriEx3-Hygro-hCyp11B2 or pTriEx3-Hygro-hCyp11B1 using Lipofectamine2000 reagent. V79 cells that stably express the human CYP11B2 or human CYP11B1 enzyme were selected for and maintained in DMEM supplemented with 10% FBS and 400 μg/mL hygromycin for ˜2 weeks. Single cell clones were generated by […] in DMEM supplemented with 10% FBS and 400 μg/mL hygromycin until single colonies were obtained. […] For testing of inhibitors, cells were harvested at 80% confluency with 0.5% Trypsan-EDTA, washed once in PBS, and reconstituted in DMEM 0.1% BSA media at a cell concentration of 400,000 cells/mL. 25 μl of cells were added to a 384 well tissue culture treated plate and mixed with 0.25 μl of inhibitor or DMSO (1% final DMSO concentration) for 1 hour at 37° C., 5% CO2. […] The reaction was carried out for 3 hours at 37° C., 5% CO2 and was stopped by harvesting the supernatants. The amount of product in the supernatant (aldosterone for CYP11B2 assay and cortisol for the CYP11B1 assay) was measured using HTRF-based assay kit (Aldosterone HTRF-CisBio#64ALDPEB, Cortisol HTRF-CisBio #63IDC002-CORT). IC50's for the inhibitor were determined by plotting the amount of product formed against the concentration of inhibitor using sigmoidal dose-response curve (variable slope) fit in GraphPad.
For orientation: In TR-FRET formats the signal depends on donor and acceptor labels being close together.

Another assay deals with T2, human CYP11B2 (Homo sapiens, UniProt P19099).
T2 construct: expressed in transfected cells; host or cells: V79 cells (clone V79-hCYP11B2-CLE9)
T2 sequence (P19099 25-503): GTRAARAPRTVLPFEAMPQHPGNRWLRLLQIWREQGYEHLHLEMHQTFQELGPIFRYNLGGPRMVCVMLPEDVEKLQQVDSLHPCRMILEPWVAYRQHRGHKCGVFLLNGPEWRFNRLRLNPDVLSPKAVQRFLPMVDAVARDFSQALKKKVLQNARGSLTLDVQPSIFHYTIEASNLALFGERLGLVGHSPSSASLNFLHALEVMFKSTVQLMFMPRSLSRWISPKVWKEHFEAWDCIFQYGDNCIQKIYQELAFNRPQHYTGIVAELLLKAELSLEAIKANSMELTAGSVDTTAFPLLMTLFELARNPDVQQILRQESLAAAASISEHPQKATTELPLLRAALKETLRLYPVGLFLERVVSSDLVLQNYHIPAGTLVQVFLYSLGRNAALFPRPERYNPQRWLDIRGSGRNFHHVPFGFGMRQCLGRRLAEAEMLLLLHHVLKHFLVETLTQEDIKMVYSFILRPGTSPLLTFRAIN
The assay can be described thus: V79-Human-CYP11B2 cell assay (aldosterone formation, HTRF). The format is cell-based. The conditions noted are these: V79 cells stably expressing human CYP11B2; substrate 125 nM 11-deoxycorticosterone; 3 hours. Here is the method:
Methods for V79-Human-CYP11B2 and V79-Human-CYP11B1 Assays: V79 cell lines stably expressing the either the human CYP11B2 or the human CYP11B1 enzyme were generated using a standard transfection protocol. V79 cells were transfected with plasmids pTriEx3-Hygro-hCyp11B2 or pTriEx3-Hygro-hCyp11B1 using Lipofectamine2000 reagent. V79 cells that stably express the human CYP11B2 or human CYP11B1 enzyme were selected for and maintained in DMEM supplemented with 10% FBS and 400 μg/mL hygromycin for ˜2 weeks. Single cell clones were generated by […] in DMEM supplemented with 10% FBS and 400 μg/mL hygromycin until single colonies were obtained. Clones V79-hCYP11B2-CLE9 and V79-hCYP11B1-8C7, were determined to produce the most aldosterone and cortisol, respectively, and were selected for inhibitor screening. For testing of inhibitors, cells were harvested at 80% confluency with 0.5% Trypsan-EDTA, washed once in PBS, and reconstituted in DMEM 0.1% BSA media at a cell concentration of 400,000 cells/mL. 25 μl of cells were added to a 384 well tissue culture treated plate and mixed with 0.25 μl of inhibitor or DMSO (1% final DMSO concentration) for 1 hour at 37° C., 5% CO2. After pre-incubation with inhibitor, the reaction was initiated by adding 5 μl of substrate (final concentration of 125 nM 11-deoxycorticosterone for the CYP11B2 assay or 250 nM 11-deoxycortisol for the CYP11B1 assay). The reaction was carried out for 3 hours at 37° C., 5% CO2 and was stopped by harvesting the supernatants. The amount of product in the supernatant (aldosterone for CYP11B2 assay and cortisol for the CYP11B1 assay) was measured using HTRF-based assay kit (Aldosterone HTRF-CisBio#64ALDPEB, Cortisol HTRF-CisBio #63IDC002-CORT). IC50's for the inhibitor were determined by plotting the amount of product formed against the concentration of inhibitor using sigmoidal dose-response curve (variable slope) fit in GraphPad.

As usually defined, the IC50 is the concentration that inhibits the measured activity by half. The low end stands for higher potency, the high end for lower potency. `Fc1ccc2nc(-c3cncc4ccccc34)n(C3CC3)c2c1F` [Example 279, 4-(1-cyclopropyl-6,7-difluoro-1H-benzimidazol-2-yl)isoquinoline]: the IC50 against human CYP11B1 came out at 206 nM; at human CYP11B2, 0.282 nM.
The corresponding values for `Cc1cncc(-c2nc3ccc(F)c(F)c3n2C2CC2)c1C` [Example 282, 1-cyclopropyl-2-(4,5-dimethylpyridin-3-yl)-6,7-difluoro-1H-benzimidazole] are 295 nM and 0.417 nM.
The corresponding values for `Cc1ccncc1-c1nc2ccc(F)c(F)c2n1C1CC1` [Example 284, 1-cyclopropyl-6,7-difluoro-2-(4-methylpyridin-3-yl)-1H-benzimidazole] are 300 nM and 1.35 nM.
For the compound `Cn1c(-c2cnccc2C(F)(F)F)nc2cc(F)c(Cl)cc21` [Example 335, 6-chloro-5-fluoro-1-methyl-2-[4-(trifluoromethyl)pyridin-3-yl]-1H-benzimidazole], the IC50 came to 563 nM against human CYP11B1 and 2.85 nM against human CYP11B2.
In the same order, the values of `Fc1cncc(-c2nc3cc(F)c(F)cc3n2OCc2ccccc2)c1` [Example 373, 1-(benzyloxy)-5,6-difluoro-2-(5-fluoropyridin-3-yl)-1H-benzimidazole] are 71.5 nM and 0.5 nM.
